According to PubChem BioAssay (NCI):
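Protocol summary: plate cells (96-well), add compound at 5 concentrations, incubate 48 h, interpolate endpoints linearly. At the GI50, growth is halved. TGI: concentration producing complete growth inhibition.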

How the values were obtained:
Assay in all cases: NCI tumour cell line growth inhibition, 48 h
EKVX NSCLC = test system: EKVX NSCLC
A549 NSCLC = test system: A549 NSCLC
M14 melanoma = test system: M14 melanoma
OVCAR-5 ovarian = test system: OVCAR-5 ovarian
UACC-257 melanoma = test system: UACC-257 melanoma
RXF 393 renal = test system: RXF 393 renal
UACC-62 melanoma = test system: UACC-62 melanoma
MCF7 breast = test system: MCF7 breast
HCC-2998 colon = test system: HCC-2998 colon
A498 renal = test system: A498 renal

Structure (SMILES) | TGI (EKVX NSCLC) [µM] | TGI (A549 NSCLC) [µM] | TGI (M14 melanoma) [µM] | TGI (OVCAR-5 ovarian) [µM] | TGI (UACC-257 melanoma) [µM] | TGI (RXF 393 renal) [µM] | TGI (UACC-62 melanoma) [µM] | TGI (MCF7 breast) [µM] | GI50 (EKVX NSCLC) [µM] | GI50 (A549 NSCLC) [µM] | GI50 (HCC-2998 colon) [µM] | TGI (HCC-2998 colon) [µM] | GI50 (A498 renal) [µM] | TGI (A498 renal) [µM] | GI50 (M14 melanoma) [µM] | GI50 (OVCAR-5 ovarian) [µM] | GI50 (UACC-257 melanoma) [µM] | GI50 (UACC-62 melanoma) [µM] | GI50 (MCF7 breast) [µM] | GI50 (RXF 393 renal) [µM]
CC(=O)O[C@H]1C(=O)[C@@]2(C)[C@H]([C@H](OC(=O)c3ccccc3)[C@@]3(O)C[C@H](O)C(C)=C1C3(C)C)[C@]1(OC(C)=O)CO[C@@H]1C[C@@H]2O | > 100 | > 100 | 74.8 | > 100 | > 100 | > 100 | > 100 | > 100 | – | – | – | – | – | – | – | – | – | – | – | –
COc1ccc2c(c1)N(CCO)C1=C(C(=O)OC1)C2c1ccccc1 (stereo not drawn) | > 50 | > 50 | 4.65 | > 50 | > 50 | – | > 50 | > 50 | 2.39 | 2.12 | 3.21 | > 50 | 0.841 | 3.11 | 1.4 | 3.77 | 1.87 | 1.72 | 1.86 | –
Cc1ccc(NC(=O)CC/C(CC(=O)C(C)(C)C)=N\Nc2ccc([N+](=O)[O-])cc2[N+](=O)[O-])cc1C | > 100 | > 100 | 20.4 | > 100 | > 100 | > 100 | > 100 | – | – | – | – | – | – | – | – | – | – | – | – | –
Nc1nc(N)c(N=Nc2ccc(C(=O)O)c(O)c2)c(N)n1 | > 100 | > 100 | > 100 | > 100 | > 100 | > 100 | > 100 | > 100 | – | – | – | – | – | > 100 | – | – | – | – | – | –
N#Cc1cc(NC(=O)c2ccccc2)c(=O)n2c1[nH]c1ccccc12 | > 100 | > 100 | 76.9 | – | > 100 | 50.7 | > 100 | – | – | – | – | > 100 | – | 85.8 | – | – | – | – | – | –
O=C1C2ON3c4ccccc4C(=O)C3(c3ccccc3)C2C(=O)N1c1ccccc1 (stereo not drawn) | > 100 | > 100 | > 100 | – | > 100 | > 100 | > 100 | – | – | – | – | > 100 | – | > 100 | – | – | – | – | – | –
Cc1c(C2Cc3ccccc3N2)c2ccccc2n1C (stereo not drawn) | > 100 | > 100 | > 100 | > 100 | > 100 | > 100 | > 100 | – | – | – | – | > 100 | – | > 100 | – | – | – | – | – | –
COC(=O)c1ccc2c(c1)c1c(C)c3ccncc3c(C)c1n2C | 36.2 | > 100 | 36.3 | > 100 | – | – | 2.63 | 1.77 | 0.274 | 0.484 | 3.86 | > 100 | 0.583 | 13.7 | 0.453 | 0.718 | – | 0.191 | 0.267 | –
CCOC(=O)C1SC(=Nc2ccc(Cl)cc2C)N=C1C (stereo not drawn) | 75.2 | 86.2 | 35.3 | 45.9 | 51.9 | 35.8 | 27.9 | – | – | – | – | 47.9 | – | 98.1 | – | – | – | – | – | –
COc1ccc(CNc2cnc3cc(N)cc(N)c3n2)cc1 | 31.1 | 54.1 | 43.9 | 43.6 | 39.7 | 49.8 | 32.4 | > 100 | 14.4 | 23 | 14.3 | 28 | – | – | 20.5 | 18.1 | 21.4 | 18.1 | 37.5 | 22.3
CC(CCCC1SCC2NC(=O)NC21)C(=O)O (stereo not drawn) | > 100 | > 100 | > 100 | > 100 | – | > 100 | > 100 | > 100 | – | – | – | – | – | > 100 | – | – | – | – | – | –
CCc1nc2cc(/C=C/C(=O)NO)ccc2c(=O)n1CCc1ccc(F)cc1 | 7.21 | 4.58 | 3.6 | > 100 | 5.92 | – | – | > 100 | 2.44 | 1.72 | 1.59 | 3.95 | 1.1 | 2.77 | 1.65 | 2.19 | 2.24 | – | 1.31 | –
C=C1C(=O)OC2CC3(C)CCCC(C)C3=CC12 (stereo not drawn) | 24.3 | 26.8 | 16.1 | 23.4 | 18.1 | – | 16.2 | 5.28 | – | – | – | 16.2 | – | 18.7 | – | – | – | – | – | –
COCOCC[C@@H]1CC=CC(NC(=O)OCc2ccccc2)C1/C=C/C(=O)CCC1OCCO1 (stereo partly drawn) | > 100 | > 100 | 88.4 | > 100 | 66.3 | > 75.9 | > 75.4 | – | – | – | – | > 100 | – | > 100 | – | – | – | – | – | –
CN(C)CCNC(=O)c1cccc2ncc(-c3ccccc3)nc12 | 34.3 | > 74.9 | 27.2 | 30.5 | 31.3 | 18 | 27.2 | – | – | – | – | 23.4 | – | 31.4 | – | – | – | – | – | –
COc1ccc2c(c1)C(=O)c1c-2n(CCCN)c(=O)c2cc(OC)c(OC)cc12 | 3.67 | 0.182 | – | 3.01 | 19.3 | 1.88 | 1.93 | – | 1.83 | 0.0267 | 0.109 | 0.294 | 1.89 | 5.59 | – | 1.59 | 3.58 | 0.299 | – | 0.399
O=C(O)CCSC(=S)Nc1cccc(F)c1 | 81.8 | > 100 | > 100 | > 100 | 53.2 | 99.2 | 29.5 | – | – | – | – | > 100 | – | 77.7 | – | – | – | – | – | –
C/C(CCn1[nH]c(=O)ccc1=O)=N\Nc1ccc([N+](=O)[O-])cc1[N+](=O)[O-] | > 100 | > 100 | > 100 | > 100 | > 100 | > 100 | > 100 | – | – | – | – | > 100 | – | > 100 | – | – | – | – | – | –
CCCN1C(=O)/C(=C/c2ccc(O)cc2)SC1=Nc1ccc(OC)cc1 | 27.9 | 26.1 | 60.6 | 29.6 | 31.7 | 28.3 | 33.7 | 94.2 | 12.3 | 12.5 | – | – | 9.61 | 22.7 | 26.8 | 15.9 | 17.3 | 17.6 | 23.2 | 11.7
